Consider 25 compounds from paper PMC4673935, “Synthesis, Antiplatelet Activity and Cytotoxicity Assessment of Indole-Based Hydrazone Derivatives” (Iranian Journal of Pharmaceutical Research : IJPR, 2015).

The subject of data set [1] is human platelet rich plasma (PRP), collagen-induced platelet aggregation. As to the kind of experiment: Collagen-induced platelet aggregation in human platelet rich plasma (Born turbidimetric method). It is filed as cell-based. Particulars: inducer collagen (5 µM); for IC50: Platelet, read-out: Antiplatelet aggregation activity, IC50, Collagen. The method, then:
(§1) The in vitro antiplatelet activity of the derivatives was evaluated using human platelet rich plasma (PRP)on an APACT 4004 aggregometerby Born’s reported turbidimetric method([16]). ADP (5 µM), arachidonic acid (1.25 mg/mL) and collagen (5 µM) were used as inducers of platelet aggregation. IC50 was defined as the concentration of the test compound that inhibits the platelet aggregation by 50%. The detailed procedure has been described in our previous works([11],[12],[17]).

The subject of data set [2] is Fibroblast L929 cell line. As to the kind of experiment: Cytotoxicity assay, MTT method. Format: cell-based. Particulars: 24 h of exposure. The method, then: (§2) The synthesized derivatives were assayed for their toxicity on Fibroblast L929 cell line by MTT [[…]] method. The compounds were initially screened at 100 µM concentration and IC50 was calculated for those showing more than 50% toxicity. The detailed procedure has been described in our previous work([18]).

The nature of data set [3]: Cytotoxicity assay, MTT method. Format: cell-based. Particulars: mouse, fibroblast L929 cell line, 24 h of exposure. The procedure:
as §2
On the technique in general: Tetrazolium assays rely on reduction of a dye to a coloured formazan, in cell work by metabolically active cells.

The test system of data set [4] is human platelet rich plasma (PRP), ADP-induced platelet aggregation. As to the kind of experiment: ADP-induced platelet aggregation in human platelet rich plasma (Born turbidimetric method). Format: cell-based. The note with it: inducer ADP 5 µM, read-out: Antiplatelet aggregation activity, IC50, ADP. The method, then: as §1
For data set [5], the system named is human platelet rich plasma (PRP), arachidonic acid-induced platelet aggregation. As to the kind of experiment: Arachidonic acid-induced platelet aggregation in human platelet rich plasma (Born turbidimetric method). It is filed as cell-based. Particulars: inducer arachidonic acid 1.25 mg/mL; for IC50: Platelet, read-out: Antiplatelet aggregation activity, IC50, AA. The method, then: as §1

For data set [6] the test system is unchanged. Also on record: method as in PMID 23154304. The note with it: inducer arachidonic acid, obtained in previous study, read-out: Antiplatelet aggregation activity, IC50, AA; cited from earlier work.
Data set [7] has as its system human platelet rich plasma (PRP), ADP-induced platelet aggregation. Set-up: method as in PMID 23154304. The note with it: inducer ADP, obtained in previous study, read-out: Antiplatelet aggregation activity, IC50, ADP; cited from earlier work.

Where two headings read alike, the source gives them in different places.

One may read the IC50 as the midpoint of a concentration-inhibition curve. On to `Fc1ccc(N/N=C/c2c[nH]c3ccccc23)cc1` [1b], for which the concentration for half-maximal inhibition (IC50) in data set [1] is greater than 100 µM; in data set [4] it was greater than 100 µM; in data set [5], 28.8 µM. Further, in data set [2], the “Cytotoxicity, IC50” value is recorded as “not toxic to fibroblast cells”. Moreover, the IC50 at 24 h in data set [3] (L929 fibroblast cells) is greater than 100 µM.

Broadly, the melting point is the temperature of the solid-liquid transition. The compound `O=C(NN=Cc1c[nH]c2ccc(Cl)cc12)c1ccncc1` [3g, 5-Chloroindole-3-carboxaldehyde isonicotinoylhydrazone] came in with a melting point greater than 270 °C. Besides, the IC50 in data set [1] was greater than 100 µM. In data set [3] (L929 fibroblast cells), this compound had an IC50 at 24 h greater than 100 µM. The concentration for half-maximal inhibition (IC50) in data set [4] was greater than 100 µM. Also, the IC50 in data set [5] is greater than 100 µM.

For the compound `O=C(NN=Cc1c[nH]c2ccccc12)c1cccc(Cl)c1` [2b, Indole-3-carboxaldehyde 3-chlorobenzoylhydrazone], the melting point lay within 215 to 218 °C. Further, in data set [1], the IC50 was greater than 100 µM. In data set [3] (L929 fibroblast cells), the IC50 at 24 h is greater than 100 µM. The IC50 in data set [4] is greater than 100 µM. For the same compound, the IC50 in data set [5] is greater than 100 µM.

On to `O=C(NN=Cc1c[nH]c2ccccc12)c1ccc([N+](=O)[O-])cc1` [2d, Indole-3-carboxaldehyde 4-nitrobenzoylhydrazone], for which the melting point lay within 250 to 253 °C. In addition, the IC50 in data set [1] is greater than 100 µM. This compound also displayed an IC50 at 24 h in data set [3] (L929 fibroblast cells) greater than 100 µM. Moreover, in data set [4], the IC50 is greater than 100 µM. Moreover, the IC50 in data set [5] is greater than 100 µM.

As to `C(=NNc1ccccc1)c1c[nH]c2ccccc12` [1a, indole-3-carboxaldehyde phenylhydrazone], the IC50 was 38.8 µM in data set [1], 10 µM in data set [6] and greater than 100 µM in data set [7]. In data set [1], the “Antiplatelet aggregation activity, IC50, Collagen” value is on record as “moderate activity”. The “Cytotoxicity, IC50” value in data set [2] is given as “not toxic to fibroblast cells”. Besides, the half-maximal inhibitory concentration (IC50) at 24 h in data set [3] (L929 fibroblast cells) is greater than 100 µM.

`Cc1cccc(C(=O)NN=Cc2c[nH]c3ccc(Cl)cc23)c1` [3e, 5-Chloroindole-3-carboxaldehyde 3-methylbenzoylhydrazone] returned a melting point of 226 to 228 °C. Moreover, the IC50 in data set [1] was greater than 100 µM. Moreover, the IC50 at 24 h in data set [3] (L929 fibroblast cells) came to 49.6 µM. In addition, the IC50 in data set [4] was greater than 100 µM. The half-maximal inhibitory concentration (IC50) in data set [5] is greater than 100 µM.

In the case of `O=C(N/N=C/c1c[nH]c2ccccc12)c1ccncc1` [2g], the 50% inhibitory concentration (IC50) in data set [1], in data set [6] and in data set [7] was greater than 100 µM each time. This compound also yielded an IC50 at 24 h in data set [3] (L929 fibroblast cells) greater than 100 µM.

The compound `Cc1ccc(C(=O)NN=Cc2c[nH]c3ccccc23)cc1` [2f, Indole-3-carboxaldehyde 4-methylbenzoylhydrazone] displayed a melting point greater than 270 °C. Besides, the IC50 in data set [1] is greater than 100 µM. The compound further returned an IC50 at 24 h in data set [3] (L929 fibroblast cells) greater than 100 µM. In addition, in data set [4], the concentration for half-maximal inhibition (IC50) was greater than 100 µM. Moreover, in data set [5], the concentration for half-maximal inhibition (IC50) is greater than 100 µM.

Turning to `Cc1ccccc1NN=Cc1c[nH]c2ccccc12` [1g, Indole-3-carboxaldehyde 2-methylphenylhydrazone], the melting point lay within 176 to 178 °C. In addition, in data set [1], the IC50 worked out at 75.2 µM and the “Antiplatelet aggregation activity, IC50, Collagen” value is recorded as “moderate activity”. In addition, in data set [3] (L929 fibroblast cells), the IC50 at 24 h amounted to 85.1 µM. For the same compound, the IC50 in data set [4] is greater than 100 µM. Moreover, the IC50 in data set [5] amounted to 56.8 µM.

For `O=C(N/N=C/c1c[nH]c2ccc(Cl)cc12)c1ccccc1` [3a], the IC50 in data set [1], in data set [4] and in data set [5] was greater than 100 µM each time. The IC50 at 24 h in data set [3] (L929 fibroblast cells) is greater than 100 µM.

For `Clc1cccc(NN=Cc2c[nH]c3ccccc23)c1` [1d, Indole-3-carboxaldehyde 3-chlorophenylhydrazone], the melting point fell in the range of 211 to 214 °C. For the same compound, the half-maximal inhibitory concentration (IC50) in data set [1] is greater than 100 µM. Further, in data set [3], half-maximal inhibition (IC50 at 24 h) was put at 33.9 µM. Besides, the concentration for half-maximal inhibition (IC50) in data set [4] was greater than 100 µM. The IC50 in data set [5] is 28.1 µM.

For the compound `O=C(NN=Cc1c[nH]c2ccccc12)c1ccc(Cl)cc1` [2c, Indole-3-carboxaldehyde 4-chlorobenzoylhydrazone], the IC50 in data set [1], in data set [4] and in data set [5] was greater than 100 µM each time. The half-maximal inhibitory concentration (IC50) at 24 h in data set [3] (L929 fibroblast cells) was greater than 100 µM.

For `COc1ccc2c(c1)c(CC(=O)O)c(C)n2C(=O)c1ccc(Cl)cc1` [Indometacin, reference compound], the IC50 in data set [1] was 1.5 µM; in data set [4], greater than 100 µM; in data set [5] it was 3 µM.

As for `Clc1ccc(N/N=C/c2c[nH]c3ccccc23)cc1` [1e], the IC50 is 62.5 µM in data set [1], greater than 100 µM in data set [4] and 22.5 µM in data set [5]. The “Antiplatelet aggregation activity, IC50, Collagen” value in data set [1] was “moderate activity”. In data set [3], this compound displayed an IC50 at 24 h of 66.7 µM.

Compound `O=C(NN=Cc1c[nH]c2ccc(Cl)cc12)c1ccc([N+](=O)[O-])cc1` [3d, 5-Chloroindole-3-carboxaldehyde 4-nitrobenzoylhydrazone] showed a melting point greater than 270 °C. In addition, in data set [1], the IC50 is greater than 100 µM. Further, the IC50 at 24 h in data set [3] (L929 fibroblast cells) was greater than 100 µM. Also, the IC50 in data set [4] was greater than 100 µM. Further, in data set [5], the IC50 was greater than 100 µM.

`Cc1cccc(C(=O)NN=Cc2c[nH]c3ccccc23)c1` [2e, Indole-3-carboxaldehyde 3-methylbenzoylhydrazone]: the melting point lay within 212 to 214 °C. In data set [1], the IC50 was greater than 100 µM. For the same compound, in data set [3] (L929 fibroblast cells), the concentration for half-maximal inhibition (IC50) at 24 h was greater than 100 µM. For the same compound, in data set [4], the IC50 was greater than 100 µM. In addition, in data set [5], the IC50 was greater than 100 µM.

Take `Clc1ccccc1NN=Cc1c[nH]c2ccccc12` [1c, Indole-3-carboxaldehyde 2-chlorophenylhydrazone]: the IC50 in data set [1] was 85.6 µM; in data set [4], greater than 100 µM; in data set [5] it was 14.6 µM. This compound registered an IC50 at 24 h in data set [3] (L929 fibroblast cells) of 45.9 µM. For the same compound, in data set [5], the “Antiplatelet aggregation activity, IC50, AA” value is “still acceptable”.

The compound `O=C(NN=Cc1c[nH]c2ccccc12)c1ccccc1` [2a, Indole-3-carboxaldehyde benzoylhydrazone] had a melting point of 238 to 241 °C. The IC50 in data set [1] is greater than 100 µM. In addition, in data set [3] (L929 fibroblast cells), the IC50 at 24 h is greater than 100 µM. Besides, the IC50 in data set [4] is greater than 100 µM. Also, the IC50 in data set [5] was greater than 100 µM.

`O=C(NN=Cc1c[nH]c2ccc(Cl)cc12)c1cccc(Cl)c1` [3b, 5-Chloroindole-3-carboxaldehyde 3-chlorobenzoylhydrazone]: the melting point lay in the range of 230 to 233 °C. Moreover, the IC50 in data set [1] is greater than 100 µM. The same compound returned an IC50 at 24 h in data set [3] (L929 fibroblast cells) of 55.5 µM. Moreover, in data set [4], the IC50 is greater than 100 µM. Besides, the IC50 in data set [5] was greater than 100 µM.

On to `Cc1ccc(C(=O)NN=Cc2c[nH]c3ccc(Cl)cc23)cc1` [3f, 5-Chloroindole-3-carboxaldehyde 4-methylbenzoylhydrazone], for which the melting point was 244 °C (dec.). The IC50 in data set [1] was greater than 100 µM. In addition, 62.7 µM corresponded to half-maximal inhibition in data set [3] (L929 fibroblast cells) (IC50 at 24 h). Also, the IC50 in data set [4] was greater than 100 µM. Also, the IC50 in data set [5] was greater than 100 µM.

In the case of `CC(=O)Oc1ccccc1C(=O)O` [Aspirin, reference compound], the IC50 in data set [1] is 9.7 µM; in data set [4], greater than 100 µM; in data set [5] it was 30.3 µM.

For the compound `COc1ccc(NN=Cc2c[nH]c3ccccc23)cc1` [1i, Indole-3-carboxaldehyde 4-methoxyphenylhydrazone], the IC50 in data set [1] was greater than 100 µM; in data set [4] it was greater than 100 µM; in data set [5] it was 7.13 µM. Besides, in data set [3] (L929 fibroblast cells), 74.5 µM corresponded to half-maximal inhibition (IC50 at 24 h).

Regarding `O=C(N/N=C/c1c[nH]c2ccc(Cl)cc12)c1ccc(Cl)cc1` [3c], the concentration for half-maximal inhibition (IC50) in data set [1], in data set [4] and in data set [5] was greater than 100 µM throughout. The IC50 at 24 h in data set [3] (L929 fibroblast cells) was found to be 71.3 µM.

On to `Cc1ccc(NN=Cc2c[nH]c3ccccc23)cc1` [1h, Indole-3-carboxaldehyde 4-methylphenylhydrazone], for which the IC50 in data set [1] was greater than 100 µM; in data set [4], greater than 100 µM; in data set [5] it was 57.2 µM. The “Cytotoxicity, IC50” value in data set [2] is reported as “not toxic to fibroblast cells”. In addition, the IC50 at 24 h in data set [3] (L929 fibroblast cells) is greater than 100 µM.

As for `Brc1ccc(N/N=C/c2c[nH]c3ccccc23)cc1` [1f], the IC50 in data set [1] was greater than 100 µM; in data set [4], 100 µM; in data set [5], 21.2 µM. This compound had an IC50 at 24 h in data set [3] (L929 fibroblast cells) of 59.8 µM. Further, in data set [5], the “Antiplatelet aggregation activity, IC50, AA” value is on record as “still acceptable”.
